Assay results reported in patent publication US9095653B2, “Method for the timed dosage of medicaments” (BAYER INTELLECTUAL PROPERTY GMBH, priority 2004, dated 2015).
Values after ≈ are worked out from the molar mass of the structure shown. Read-outs that look alike come from different tables or passages of the source.

Assays:
[1] = Plasma clearance adapted in PK-Sim simulation to experimental literature concentration-time profiles; assay type: in vivo, humans; settings: human, read-out: plasma clearance CL
Description: Drug Dispos. 20, 417-419 (1999)) and a muscle concentration-time profile from the literature (M. Müller, B. v. Osten, R. Schmid, E. Piegler, I. Gerngross, H. Buchegger, H. G. Eichler: “Theophylline kinetics in peripheral tissues in vivo in humans”, Naunyn-Schmiedeberg's Arch. Pharmacol. 352, 438-441 (1995)) (FIG. 2).
The plasma clearance here is CL=0.40 ml/min/kg. (source: [12]) • b) Intravenous infusion of 240 mg over 10 minutes. […] (source: [13]) • c) Peroral administration of 200 mg of an immediately releasing formulation (mean and standard deviation of three bioequivalent immediate release capsules).

[2] = average value for an adult human; cited from earlier work
[3] = cited from earlier work
[4] = Solubility, substance input parameter; assay type: physicochemical; settings: input parameter for PK-Sim
[5] = Lipophilicity (LogMA), substance input parameter for PK-Sim; assay type: physicochemical

Cn1c(=O)c2[nH]cnc2n(C)c1=O [Theophylline]
clearance ([1]; intravenous infusion of 5.58 mg/kg over 20 minutes, adapted to experimental data (FIG. 2a)): 0.4 mL/min/kg | clearance ([1]; intravenous infusion of 240 mg over 10 minutes, adapted to experimental data (FIG. 2b)): 0.25 mL/min/kg | clearance ([1]; oral, peroral administration of 200 mg immediately releasing formulation, adapted to experimental data (FIG. 2c)): 0.5 mL/min/kg | Free plasma fraction [2]: 59% | plasma concentration below which a sufficient anti-asthmatic effect is not generally achieved [3]: below 5 mg/l | solubility [4]: 2800 µg/mL (≈ 15.5 mM) | Lipophilicity (LogMA) [5]: −0.2
